Data from US7700782B2, “Compounds 569” (AstraZeneca AB, priority 2007, dated 2010).
Structures can show the parent of a compound that is named as a salt.

Biological target: T1, Adrenergic β2 (Homo sapiens, UniProt P07550)
T1 construct: Adherent H292 cells were removed from tissue culture flasks; endogenous in cells; host or cells: H292 cells
Assay: Adrenergic β2 mediated cAMP production in H292 cells (AlphaScreen cAMP detection)
Format: cell-based
Conditions: Intrinsic Activity, fraction relative to the maximum activity determined for formoterol
How it was run: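 H292 cells, 5000/well, preincubated 10 min with rolipram (final 300 μM, 1.6% DMSO) in HEPES pH 7.4 HBSS, then compound 60 min at room temperature. Lysate cAMP quantified by AlphaScreen against a cAMP standard curve. pEC50 and intrinsic activity (fraction of formoterol maximum) from four-parameter logistic fits.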

T1 sequence (P07550 whole entry): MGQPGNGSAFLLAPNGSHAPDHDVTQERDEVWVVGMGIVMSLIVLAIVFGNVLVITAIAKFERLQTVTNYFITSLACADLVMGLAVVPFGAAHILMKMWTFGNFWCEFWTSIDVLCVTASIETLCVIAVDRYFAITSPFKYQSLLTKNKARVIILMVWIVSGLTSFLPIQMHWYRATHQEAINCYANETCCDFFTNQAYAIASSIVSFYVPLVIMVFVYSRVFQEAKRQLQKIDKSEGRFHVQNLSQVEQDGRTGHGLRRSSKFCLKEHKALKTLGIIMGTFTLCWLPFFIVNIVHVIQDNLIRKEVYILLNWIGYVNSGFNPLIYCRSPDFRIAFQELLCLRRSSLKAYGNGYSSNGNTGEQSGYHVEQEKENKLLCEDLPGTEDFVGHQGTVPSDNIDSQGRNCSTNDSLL

SMILES	β2 Int Act	β2 Int Act (dihydrobromide salt)
O=C(CCNCCc1ccc(Cl)s1)N(CCNCCc1ccc(O)c2[nH]c(=O)sc12)C1CCCCC1 [Example 72, N^3-[2-(5-Chloro-2-thienyl)ethyl]-N^1-cyclohexyl-N^1-(2-{[2-(4-hydroxy-2-oxo-2,3-dihydro-1,3-benzothiazol-7-yl)ethyl]amino}ethyl)-β-alaninamide bis-trifluoroacetic acid salt]	0.89	
O=C(CCNCCc1ccc(F)c(F)c1)N(CCNCCc1ccc(O)c2[nH]c(=O)sc12)C1CCCCC1 [Example 73, N^1-Cyclohexyl-N^3-[2-(3,4-difluorophenyl)ethyl]-N^1-(2-{[2-(4-hydroxy-2-oxo-2,3-dihydro-1,3-benzothiazol-7-yl)ethyl]amino}ethyl)-β-alaninamide bis-trifluoroacetic acid salt]	0.85	
O=C(CCNC[C@@H](O)c1ccccc1)N(CCNCCc1ccc(O)c2[nH]c(=O)sc12)C1CCCCC1 [Example 74, N^1-Cyclohexyl-N^1-(2-{[2-(4-hydroxy-2-oxo-2,3-dihydro-1,3-benzothiazol-7-yl)ethyl]amino}ethyl)-N^3-[(2S)-2-hydroxy-2-phenylethyl]-β-alaninamide bis-trifluoroacetic acid salt]	0.79	
O=C(CCNC[C@H](O)c1ccccc1)N(CCNCCc1ccc(O)c2[nH]c(=O)sc12)C1CCCCC1 [Example 75, N^1-Cyclohexyl-N^1-(2-{[2-(4-hydroxy-2-oxo-2,3-dihydro-1,3-benzothiazol-7-yl)ethyl]amino}ethyl)-N^3-[(2R)-2-hydroxy-2-phenylethyl]-β-alaninamide bis-trifluoroacetic acid salt]	0.91	
O=C(CCNCCc1ccc2c(c1)OCO2)N(CCNCCc1ccc(O)c2[nH]c(=O)sc12)C1CCCCC1 [Example 76, N^3-[2-(1,3-Benzodioxol-5-yl)ethyl]-N^1-cyclohexyl-N^1-(2-{[2-(4-hydroxy-2-oxo-2,3-dihydro-1,3-benzothiazol-7-yl)ethyl]amino}ethyl)-β-alaninamide bis-trifluoroacetic acid salt]	0.68	
O=C(CCNCCc1nc2ccccc2[nH]1)N(CCNCCc1ccc(O)c2[nH]c(=O)sc12)C1CCCCC1 [Example 77, N^3-[2-(1H-Benzimidazol-2-yl)ethyl]-N^1-cyclohexyl-N^1-(2-{[2-(4-hydroxy-2-oxo-2,3-dihydro-1,3-benzothiazol-7-yl)ethyl]amino}ethyl)-β-alaninamide tris-trifluoroacetic acid salt]	0.54	
O=C(CCNCCc1cc(F)cc(F)c1)N(CCNCCc1ccc(O)c2[nH]c(=O)sc12)C1CCCCC1 [Example 78, N^1-Cyclohexyl-N^3-[2-(3,5-difluorophenyl)ethyl]-N^1-(2-{[2-(4-hydroxy-2-oxo-2,3-dihydro-1,3-benzothiazol-7-yl)ethyl]amino}ethyl)-β-alaninamide bis-trifluoroacetic acid salt]	0.91	
O=C(CCNCCc1cc(F)ccc1F)N(CCNCCc1ccc(O)c2[nH]c(=O)sc12)C1CCCCC1 [Example 79, N^1-Cyclohexyl-N^3-[2-(2,5-difluorophenyl)ethyl]-N^1-(2-{[2-(4-hydroxy-2-oxo-2,3-dihydro-1,3-benzothiazol-7-yl)ethyl]amino}ethyl)-β-alaninamide bis-trifluoroacetic acid salt]	0.84	
O=C(CCNCCC(F)(F)F)N(CCNCCc1ccc(O)c2[nH]c(=O)sc12)C1CCCCC1 [Example 80, N^1-Cyclohexyl-N^1-(2-{[2-(4-hydroxy-2-oxo-2,3-dihydro-1,3-benzothiazol-7-yl)ethyl]amino}ethyl)-N^3-(3,3,3-trifluoropropyl)-β-alaninamide bis-trifluoroacetic acid salt]	0.86	
O=C(CCNCCc1cccc(F)c1F)N(CCNCCc1ccc(O)c2[nH]c(=O)sc12)C1CCCCC1 [Example 81, N^1-Cyclohexyl-N^3-[2-(2,3-difluorophenyl)ethyl]-N^1-(2-{[2-(4-hydroxy-2-oxo-2,3-dihydro-1,3-benzothiazol-7-yl)ethyl]amino}ethyl)-β-alaninamide bis-trifluoroacetic acid salt]	0.89	
O=C(CCNCCc1cccc(C(F)(F)F)c1)N(CCNCCc1ccc(O)c2[nH]c(=O)sc12)C1CCCCCC1 [Example 82, N^1-Cycloheptyl-N^1-(2-{[2-(4-hydroxy-2-oxo-2,3-dihydro-1,3-benzothiazol-7-yl)ethyl]amino}ethyl)-N^3-{2-[3-(trifluoromethyl)phenyl]ethyl}-β-alaninamide bis-trifluoroacetic acid salt]	0.86	
O=C(CCNCCc1cc(F)ccc1F)N(CCNCCc1ccc(O)c2[nH]c(=O)sc12)C1CCCCCC1 [Example 83, N^1-Cycloheptyl-N^3-[2-(2,5-difluorophenyl)ethyl]-N^1-(2-{[2-(4-hydroxy-2-oxo-2,3-dihydro-1,3-benzothiazol-7-yl)ethyl]amino}ethyl)-β-alaninamide bis-trifluoroacetic acid salt]	0.71	
O=C(CCNCCc1c(F)cccc1F)N(CCNCCc1ccc(O)c2[nH]c(=O)sc12)C1CCCCCC1 [Example 84, N^1-Cycloheptyl-N^3-[2-(2,6-difluorophenyl)ethyl]-N^1-(2-{[2-(4-hydroxy-2-oxo-2,3-dihydro-1,3-benzothiazol-7-yl)ethyl]amino}ethyl)-β-alaninamide bis-trifluoroacetic acid salt]	0.89	
Cc1cccc(CCNCCC(=O)N(CCNCCc2ccc(O)c3[nH]c(=O)sc23)C2CCCCCC2)c1 [Example 85, N^1-Cycloheptyl-N^1-(2-{[2-(4-hydroxy-2-oxo-2,3-dihydro-1,3-benzothiazol-7-yl)ethyl]amino}ethyl)-N^3-[2-(3-methylphenyl)ethyl]-β-alaninamide bis-trifluoroacetic acid salt]	0.65	
COc1ccc(CCNCCC(=O)N(CCNCCc2ccc(O)c3[nH]c(=O)sc23)C2CCCCCC2)cc1OC [Example 86, N^1-Cycloheptyl-N^3-[2-(3,4-dimethoxyphenyl)ethyl]-N^1-(2-{[2-(4-hydroxy-2-oxo-2,3-dihydro-1,3-benzothiazol-7-yl)ethyl]amino}ethyl)-β-alaninamide bis-trifluoroacetic acid salt]	0.43	
O=C(CCNCCc1ccc(O)c2[nH]c(=O)sc12)N(CCNCCc1ccc(O)c2[nH]c(=O)sc12)C1CCCCCC1 [Example 87, N^1-Cycloheptyl-N^3-[2-(4-hydroxy-2-oxo-2,3-dihydro-1,3-benzothiazol-7-yl)ethyl]-N^1-(2-{[2-(4-hydroxy-2-oxo-2,3-dihydro-1,3-benzothiazol-7-yl)ethyl]amino}ethyl)-β-alaninamide bis-trifluoroacetic acid salt]	0.72	
O=C(CCNCCc1ccc2c(c1)OCCO2)N(CCNCCc1ccc(O)c2[nH]c(=O)sc12)C1CCCCCC1 [Example 88, N^1-Cycloheptyl-N^3-[2-(2,3-dihydro-1,4-benzodioxin-6-yl)ethyl]-N^1-(2-{[2-(4-hydroxy-2-oxo-2,3-dihydro-1,3-benzothiazol-7-yl)ethyl]amino}ethyl)-β-alaninamide bis-trifluoroacetic acid salt]	0.37	
O=C(CCNCCc1ccc(O)c(Cl)c1)N(CCNCCc1ccc(O)c2[nH]c(=O)sc12)C1CCCCC1 [Example 89, N^3-[2-(3-chloro-4-hydroxyphenyl)ethyl]-N^1-cyclohexyl-N^1-(2-{[2-(4-hydroxy-2-oxo-2,3-dihydro-1,3-benzothiazol-7-yl)ethyl]amino}ethyl)-β-alaninamide bis-trifluoroacetic acid salt]	0.9	
O=C(CCNCCc1cccc(O)c1)N(CCNCCc1ccc(O)c2[nH]c(=O)sc12)C1CCCCCCC1 [Example 90, N^1-Cyclooctyl-N^1-(2-{[2-(4-hydroxy-2-oxo-2,3-dihydro-1,3-benzothiazol-7-yl)ethyl]amino}ethyl)-N^3-[2-(3-hydroxyphenyl)ethyl]-β-alaninamide bis-trifluoroacetic acid salt]	0.71	
CC1(C)CCC(N(CCNCCc2ccc(O)c3[nH]c(=O)sc23)C(=O)CCNCCc2cccc(O)c2)CC1 [Example 91, N^1-(4,4-Dimethylcyclohexyl)-N^1-(2-{[2-(4-hydroxy-2-oxo-2,3-dihydro-1,3-benzothiazol-7-yl)ethyl]amino}ethyl)-N^3-[2-(3-hydroxyphenyl)ethyl]-β-alaninamide bis-trifluoroacetic acid salt]	0.75	
O=C(CCNCCc1cccc(F)c1)N(CCNCCc1ccc(O)c2[nH]c(=O)sc12)C1CCCCC1 [Example 96, N-Cyclohexyl-N^3-[2-(3-fluorophenyl)ethyl]-N-(2-{[2-(4-hydroxy-2-oxo-2,3-dihydro-1,3-benzothiazol-7-yl)ethyl]amino}ethyl)-β-alaninamide dihydrobromide salt]	0.85	
O=C(CCNCCc1ccccc1)N(CCNCCc1ccc(O)c2[nH]c(=O)sc12)C1CCCCCC1 [Example 98, N-Cycloheptyl-N-(2-{[2-(4-hydroxy-2-oxo-2,3-dihydro-1,3-benzothiazol-7-yl)ethyl]amino}ethyl)-N^3-(2-phenylethyl)-β-alaninamide dihydrobromide salt]		0.8
O=C(NCc1ccccc1)c1ccc(CCNCCC(=O)N(CCNCCc2ccc(O)c3[nH]c(=O)sc23)C2CCCCCC2)cc1 [Example 100, N-Benzyl-4-[2-({3-[cycloheptyl(2-{[2-(4-hydroxy-2-oxo-2,3-dihydro-1,3-benzothiazol-7-yl)ethyl]amino}ethyl)amino]-3-oxopropyl}amino)ethyl]benzamide bis-trifluoroacetic acid salt]	0.81	
CCCC[C@@H](C)N(CCNCCc1ccc(O)c2[nH]c(=O)sc12)C(=O)CCNCCc1ccccc1 [Example 101, N-(2-{[2-(4-Hydroxy-2-oxo-2,3-dihydro-1,3-benzothiazol-7-yl)ethyl]amino}ethyl)-N-[(1R)-1-methylpentyl]-N^3-(2-phenylethyl)-β-alaninamide bis-trifluoroacetic acid salt]	0.98	
